The values that follow come from patent US20130289471A1, “GAS BASED WOUND AND TISSUE THERAPEUTICS” (Virginia Commonwealth University, priority 2008, published 2013).

Data set [1] is described as follows: Physical properties of F-tert-butylcyclohexane. The data set is classed as physicochemical. Set-up: Kinematic Viscosity: unit not given here. The text has this: Oxycyte® is based on the perfluorocarbon F-tert-butylcyclohexane, a saturated alicyctic PFC (molecular formula C10F20) and can be used as a PFC composition in the methods and uses described herein. Physical properties of F-tert-butylcyclohexane are as follows: […]

A short description of data set [2]: Lipophilicity of the preferred PFC (statement). The data set is classed as physicochemical. The text has this: Being that the PFCs are slightly lipophilic at body temperature and would help in the transport of oxygen into and removal of carbon dioxide from the skin tissue, PFCs can accelerate the healing process of a wound in a tissue.

Each structure is given as a SMILES string.

`FC(F)(F)C(C(F)(F)F)(C(F)(F)F)C1(F)C(F)(F)C(F)(F)C(F)(F)C(F)(F)C1(F)F` [F-tert-butylcyclohexane, perfluoro-tert-butylcyclohexane]: in data set [1], the Density turned out to be 1.97 g/mL and the “Kinematic Viscosity” value is reported as 5.378. Moreover, the “Vapor Pressure @ 25° C.” value in data set [1] (25° C.) is reported as 3.8 mmHg. In data set [1] (37° C.), the “Vapor Pressure @ 37° C.” value worked out at 4.4 mmHg. Moreover, the lipophilicity entry in data set [2] (at body temperature) is listed as “only slightly lipophilic”. Further, in data set [2] (at room temperature), the lipophilicity result is “not lipophilic”.
